The target in assay [1] is hWRN(519-1227)_C-H3CV-GFP-10His (Homo sapiens, UniProt Q14191). Kind of assay: Helicase Assay for WRN Inhibition (ATP-dependent, fluorescence based).
The target in another assay is T1, WRN C727 (Homo sapiens, UniProt Q14191).
T1 construct: endogenous in cells; host or cells: OCI-AML2
Kind of assay: Target engagement, in vitro (lysate), OCI-AML2. The following applies: read-out: OCI-AML2 WRN C727 TE50 in vitro (lysate). The format is binding. On the procedure: Cells or cell lysates were treated with a dose response of compound followed by probe treatment, which labels solvent exposed cysteines. Proteins were enzymatically digested with trypsin and probe-labelled peptides were enriched with streptavidin. Isolated peptides were then separated using reversed-phase liquid chromatography on a C18 column (Dionex Ultimated 3000 nano-LC, Thermo). Peptides were analyzed by parallel reaction monitoring mass spectrometry (Exploris 120, Thermo).
Target engagement (%) is calculated relative to DMSO treated control samples.

In another assay the test system is HCT 116 cells. As to the kind of experiment: Cell growth assay (CellTiter-Glo 2.0), HCT 116 MSI-H cell line. The following applies: Homo sapiens, HCT-116, 120 h, read-out: Cell Growth Inhibition GI50 HCT-116. On the technique in general: ATP-based viability assays read luminescence as a measure of living cells.
Setting [2] is: WRN Helicase IC50, 30 min preincubation with ATP, 30 min reaction.

Read-outs that look alike come from different tables or passages of the source.

Chain of hWRN(519-1227)_C-H3CV-GFP-10His (Q14191 519-1227): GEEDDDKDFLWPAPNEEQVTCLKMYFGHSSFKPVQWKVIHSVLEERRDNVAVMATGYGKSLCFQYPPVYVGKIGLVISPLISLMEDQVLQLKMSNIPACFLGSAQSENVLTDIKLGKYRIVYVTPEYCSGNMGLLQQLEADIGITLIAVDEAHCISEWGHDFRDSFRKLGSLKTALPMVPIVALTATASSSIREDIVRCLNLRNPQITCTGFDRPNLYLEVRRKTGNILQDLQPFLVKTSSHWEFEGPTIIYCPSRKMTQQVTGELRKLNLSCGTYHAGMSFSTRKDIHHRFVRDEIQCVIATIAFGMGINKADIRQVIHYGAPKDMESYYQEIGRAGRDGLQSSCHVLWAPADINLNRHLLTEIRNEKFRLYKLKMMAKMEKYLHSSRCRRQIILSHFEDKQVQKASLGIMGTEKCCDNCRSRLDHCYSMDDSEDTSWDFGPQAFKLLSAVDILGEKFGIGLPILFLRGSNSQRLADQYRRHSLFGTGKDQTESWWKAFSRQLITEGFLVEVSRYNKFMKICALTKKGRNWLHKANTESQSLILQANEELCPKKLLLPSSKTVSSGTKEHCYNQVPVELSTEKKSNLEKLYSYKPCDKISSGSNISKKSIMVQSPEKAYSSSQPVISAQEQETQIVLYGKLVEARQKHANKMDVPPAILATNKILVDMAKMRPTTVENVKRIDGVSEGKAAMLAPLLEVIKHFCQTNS
T1 sequence (Q14191 whole entry): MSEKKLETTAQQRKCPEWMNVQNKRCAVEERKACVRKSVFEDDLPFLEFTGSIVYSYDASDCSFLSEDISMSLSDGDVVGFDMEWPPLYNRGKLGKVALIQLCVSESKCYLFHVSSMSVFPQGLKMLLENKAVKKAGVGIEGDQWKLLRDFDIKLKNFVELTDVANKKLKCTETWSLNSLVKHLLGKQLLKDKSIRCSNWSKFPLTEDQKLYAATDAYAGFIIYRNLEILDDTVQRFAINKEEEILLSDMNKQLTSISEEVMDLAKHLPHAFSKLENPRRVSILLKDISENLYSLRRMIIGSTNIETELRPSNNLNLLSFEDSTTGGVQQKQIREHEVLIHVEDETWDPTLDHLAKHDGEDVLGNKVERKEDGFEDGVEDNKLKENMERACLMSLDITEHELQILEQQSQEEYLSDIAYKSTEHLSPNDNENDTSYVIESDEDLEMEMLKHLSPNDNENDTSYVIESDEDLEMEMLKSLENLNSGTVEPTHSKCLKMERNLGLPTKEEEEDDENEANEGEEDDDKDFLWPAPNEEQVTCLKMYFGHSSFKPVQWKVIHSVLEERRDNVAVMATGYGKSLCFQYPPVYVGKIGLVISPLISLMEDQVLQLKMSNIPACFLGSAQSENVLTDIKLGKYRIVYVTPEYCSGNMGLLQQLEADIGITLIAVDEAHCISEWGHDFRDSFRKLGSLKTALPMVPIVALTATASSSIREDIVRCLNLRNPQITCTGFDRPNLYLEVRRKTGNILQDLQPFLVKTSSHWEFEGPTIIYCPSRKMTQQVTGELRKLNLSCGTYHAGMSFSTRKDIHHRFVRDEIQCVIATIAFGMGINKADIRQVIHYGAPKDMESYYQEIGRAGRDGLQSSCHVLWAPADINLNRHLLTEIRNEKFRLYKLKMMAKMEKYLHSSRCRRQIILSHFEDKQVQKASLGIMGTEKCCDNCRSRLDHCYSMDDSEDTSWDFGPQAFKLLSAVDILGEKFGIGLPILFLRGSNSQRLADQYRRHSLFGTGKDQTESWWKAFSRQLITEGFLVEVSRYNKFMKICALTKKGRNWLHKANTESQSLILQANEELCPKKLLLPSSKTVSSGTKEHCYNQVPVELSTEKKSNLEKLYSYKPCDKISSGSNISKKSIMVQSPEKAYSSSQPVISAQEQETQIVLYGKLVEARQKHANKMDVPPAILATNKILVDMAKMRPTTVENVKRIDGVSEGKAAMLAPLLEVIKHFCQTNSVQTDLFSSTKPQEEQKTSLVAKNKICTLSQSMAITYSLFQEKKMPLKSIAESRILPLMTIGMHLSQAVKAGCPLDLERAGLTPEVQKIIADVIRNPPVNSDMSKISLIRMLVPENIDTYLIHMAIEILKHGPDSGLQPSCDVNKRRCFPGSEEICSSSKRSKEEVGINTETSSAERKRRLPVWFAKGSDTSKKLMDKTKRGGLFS

`C[C@@H](/C=C/S(C)(=O)=O)NC(=O)c1cnc(C2Cc3ccccc32)nc1Oc1ccccc1` (stereo partly drawn) [Example 52, 2-(bicyclo[4.2.0]octa-1,3,5-trien-7-yl)-N—((S,E)-4-(methylsulfonyl)but-3-en-2-yl)-4-phenoxypyrimidine-5-carboxamide]: the figures for the IC50 (in assay [1] (setting [2]); at WRN C727) were 66 µM and greater than 100 µM, respectively.

On to `C[C@@H](/C=C/S(C)(=O)=O)NC(=O)c1cnc(C2CCCC2)nc1O[C@@H]1CCCC[C@H]1O` (single isomer, unassigned) [Example 132], for which the IC50 in assay [1] (setting [2]) was 30 µM; on WRN C727, greater than 100 µM.

`C[C@@H](/C=C/S(C)(=O)=O)NC(=O)c1cnc(C2CCCC2)nc1O[C@H]1CCCOC1` [Example 134, 2-cyclopentyl-N—((S,E)-4-(methylsulfonyl)but-3-en-2-yl)-4-(((S)-tetrahydro-2H-pyran-3-yl)oxy)pyrimidine-5-carboxamide]: the values for the IC50 (in assay [1] (setting [2]); on WRN C727) were 53 µM and greater than 100 µM, respectively.

With `C[C@@H](/C=C/S(C)(=O)=O)NC(=O)c1cnc(C2CC2)c(F)c1Oc1ccccc1` [Example 205, (S,E)-6-cyclopropyl-5-fluoro-N-(4-(methylsulfonyl)but-3-en-2-yl)-4-phenoxynicotinamide], the IC50 in assay [1] (setting [2]) was 20 µM; at WRN C727 it was greater than 100 µM.

Turning to `C[C@@H](/C=C/S(C)(=O)=O)NC(=O)c1cnc(C(C)(C)C)nc1OC1CCC(F)(F)CC1` [Example 155, (S,E)-2-(tert-butyl)-4-((4,4-difluorocyclohexyl)oxy)-N-(4-(methylsulfonyl)but-3-en-2-yl)pyrimidine-5-carboxamide], the IC50 worked out at 15 µM in assay [1] (setting [2]) and 20 µM at WRN C727.

For the compound `CS(=O)(=O)/C=C/CNC(=O)c1cnc(-c2ccn[nH]2)nc1Oc1ccccc1` [Example 209, (E)-N-(3-(methylsulfonyl)allyl)-4-phenoxy-2-(1H-pyrazol-5-yl)pyrimidine-5-carboxamide], the IC50 in assay [1] (setting [2]) was 18 µM; at WRN C727 it was greater than 100 µM.

As for `C[C@@H](/C=C/S(C)(=O)=O)NC(=O)c1cnc(C2CCCC2)nc1O[C@@H]1CCCC[C@@H]1O` (single isomer, unassigned) [Example 130], the figures for the IC50 (in assay [1] (setting [2]); on WRN C727) were 50 µM and greater than 100 µM, respectively.

With `C[C@@H](/C=C/S(C)(=O)=O)NC(=O)c1cnc(C2CCCOC2)nc1Oc1ccccc1` (stereo partly drawn) [Example 212, N—((S,E)-4-(methylsulfonyl)but-3-en-2-yl)-4-phenoxy-2-(tetrahydro-2H-pyran-3-yl)pyrimidine-5-carboxamide], the values for the IC50 (in assay [1] (setting [2]); at WRN C727) were 31 µM and greater than 100 µM, respectively.

Regarding `C[C@@H](/C=C/S(C)(=O)=O)NC(=O)c1cnc(N2CCC(F)(F)C2)nc1Oc1ccccc1` [Example 173, (S,E)-2-(3,3-difluoropyrrolidin-1-yl)-N-(4-(methylsulfonyl)but-3-en-2-yl)-4-phenoxypyrimidine-5-carboxamide], the IC50 in assay [1] (setting [2]) is 48 µM; at WRN C727, greater than 100 µM.

For the compound `C[C@@H](/C=C/S(C)(=O)=O)NC(=O)c1cnc(C2CC2)nc1O[C@H]1C[C@H](Cl)C1` [Example 151, 4-((1r,3S)-3-chlorocyclobutoxy)-2-cyclopropyl-N—((S,E)-4-(methylsulfonyl)but-3-en-2-yl)pyrimidine-5-carboxamide], the IC50 is 59 µM in assay [1] (setting [2]) and greater than 100 µM at WRN C727.

`CC(C)(C)c1ncc(C(=O)NC2(C=CS(C)(=O)=O)CC2)c(Oc2ccccc2)n1` (racemic) [Example 59, 2-(tert-butyl)-N-(1-(2-(methylsulfonyl)vinyl)cyclopropyl)-4-phenoxypyrimidine-5-carboxamide]: the IC50 is 54 µM in assay [1] (setting [2]) and greater than 100 µM at WRN C727.

As to `C[C@@H](/C=C/S(C)(=O)=O)NC(=O)c1cnc(N2CC3(CCC3)C2)nc1Oc1ccccc1` [Example 170, (S,E)-N-(4-(methylsulfonyl)but-3-en-2-yl)-4-phenoxy-2-(2-azaspiro[3.3]heptan-2-yl)pyrimidine-5-carboxamide], the results for the IC50 (in assay [1] (setting [2]); at WRN C727) were 137 µM and greater than 100 µM, respectively.

With `CS(=O)(=O)/C=C/[C@@H](NC(=O)c1cnc(N2CC(F)(F)C2)nc1Oc1ccccc1)C1CC1` [Example 183, (S,E)-N-(1-cyclopropyl-3-(methylsulfonyl)allyl)-2-(3,3-difluoroazetidin-1-yl)-4-phenoxypyrimidine-5-carboxamide], the IC50 in assay [1] (setting [2]) is 2.9 µM; on WRN C727, 64.4 µM.

In the case of `CS(=O)(=O)/C=C/CNC(=O)c1cnc(C2CCCC2)nc1Oc1ccccc1` [Example 1, (E)-2-cyclopentyl-N-(3-(methylsulfonyl)allyl)-4-phenoxypyrimidine-5-carboxamide], in the assay with HCT 116 cells, the GI50 stood at 2100 nM.

Take `C[C@@H](/C=C/S(C)(=O)=O)NC(=O)c1cnc(C2CCCC2)nc1O[C@H]1CCCC[C@H]1O` (single isomer, unassigned) [Example 129]: the IC50 is 85 µM in assay [1] (setting [2]) and greater than 100 µM on WRN C727.

As to `CC(=O)Nc1nc(C2CCCC2)nc(Oc2ccccc2)c1C(=O)N[C@@H](C)/C=C/S(C)(=O)=O` [Example 256, (S,E)-4-acetamido-2-cyclopentyl-N-(4-(methylsulfonyl)but-3-en-2-yl)-6-phenoxypyrimidine-5-carboxamide], the IC50 in assay [1] (setting [2]) was 42 µM; at WRN C727 it was greater than 100 µM.

For the compound `C[C@@H](/C=C/S(C)(=O)=O)NC(=O)c1cnc(C2CCCC2)nc1C1CCCCC1` [Example 239, (S,E)-4-cyclohexyl-2-cyclopentyl-N-(4-(methylsulfonyl)but-3-en-2-yl)pyrimidine-5-carboxamide], the IC50 was 148 µM in assay [1] (setting [2]) and greater than 100 µM on WRN C727.

`C[C@@H](/C=C/S(C)(=O)=O)NC(=O)c1cnc(C2CCOCC2)nc1Oc1ccccc1` [Example 238, (S,E)-N-(4-(methylsulfonyl)but-3-en-2-yl)-4-phenoxy-2-(tetrahydro-2H-pyran-4-yl)pyrimidine-5-carboxamide]: the IC50 is 53 µM in assay [1] (setting [2]) and greater than 100 µM on WRN C727.

Regarding `CC(C)Oc1cc(C2CCCC2)ccc1C(=O)NC/C=C/S(C)(=O)=O` [Example 281, (E)-4-cyclopentyl-2-isopropoxy-N-(3-(methylsulfonyl)allyl)benzamide], the IC50 in assay [1] (setting [2]) was 51 µM; on WRN C727, 41.8 µM.

In the case of `Cc1ccc(Oc2nc(C3CCCC3)ncc2C(=O)NC/C=C/S(C)(=O)=O)cc1` [Example 104, (E)-2-cyclopentyl-N-(3-(methylsulfonyl)allyl)-4-(p-tolyloxy)pyrimidine-5-carboxamide], the IC50 was determined as 19 µM in assay [1] (setting [2]) and 21.8 µM at WRN C727.

As for `C[C@@H](/C=C/S(C)(=O)=O)NC(=O)c1ncc(C2=CCCC2)nc1Oc1ccccc1` [Example 207, (S,E)-5-(cyclopent-1-en-1-yl)-N-(4-(methylsulfonyl)but-3-en-2-yl)-3-phenoxypyrazine-2-carboxamide], the IC50 in assay [1] (setting [2]) was 52 µM; at WRN C727, greater than 100 µM.

As for `C[C@@H](/C=C/S(C)(=O)=O)NC(=O)c1cnc(C(C)(C)C)nc1OC1(C#N)CCCC1` [Example 161, (S,E)-2-(tert-butyl)-4-((1-cyanocyclopentyl)oxy)-N-(4-(methylsulfonyl)but-3-en-2-yl)pyrimidine-5-carboxamide], the IC50 is 154 µM in assay [1] (setting [2]) and greater than 100 µM on WRN C727.

In the case of `CO[C@H](C)[C@@H](/C=C/S(C)(=O)=O)NC(=O)c1cnc(C2CC2)nc1Oc1ccccc1` [Example 32, 2-cyclopropyl-N-((3R,4R,E)-4-methoxy-1-(methylsulfonyl)pent-1-en-3-yl)-4-phenoxypyrimidine-5-carboxamide], the IC50 in assay [1] (setting [2]) is 35 µM; on WRN C727, greater than 100 µM.

In the case of `CS(=O)(=O)C1=CCN(C(=O)c2cnc(C3CC3)nc2Oc2ccccc2)C1` [Example 34, (2-cyclopropyl-4-phenoxypyrimidin-5-yl)(3-(methylsulfonyl)-2,5-dihydro-1H-pyrrol-1-yl)methanone], the IC50 is 26 µM in assay [1] and greater than 100 µM on WRN C727.

For `COc1ncc(C(=O)N[C@H](/C=C/S(C)(=O)=O)C2CC2)c(Oc2ccccc2)n1` [Example 244, (S,E)-N-(1-cyclopropyl-3-(methylsulfonyl)allyl)-2-methoxy-4-phenoxypyrimidine-5-carboxamide], the figures for the IC50 (in assay [1] (setting [2]); at WRN C727) were 20 µM and 0.49 µM, respectively.

Turning to `CCc1ccc(Oc2nc(C3CCCC3)ncc2C(=O)N[C@@H](C)/C=C/S(C)(=O)=O)cc1` [Example 107, (S,E)-2-cyclopentyl-4-(4-ethylphenoxy)-N-(4-(methylsulfonyl)but-3-en-2-yl)pyrimidine-5-carboxamide], the IC50 in assay [1] (setting [2]) was 82 µM; on WRN C727, greater than 100 µM.

Turning to `CN(C/C=C/S(C)(=O)=O)C(=O)c1cnc(C2CCCC2)nc1Oc1ccccc1` [Example 187, (E)-2-cyclopentyl-N-methyl-N-(3-(methylsulfonyl)allyl)-4-phenoxypyrimidine-5-carboxamide], the IC50 in assay [1] (setting [2]) was 52 µM; at WRN C727, greater than 100 µM.

Take `C[C@@H](/C=C/S(C)(=O)=O)NC(=O)c1cnc(C(C)(C)C)nc1OC1CC(F)(F)C1` [Example 156, (S,E)-2-(tert-butyl)-4-(3,3-difluorocyclobutoxy)-N-(4-(methylsulfonyl)but-3-en-2-yl)pyrimidine-5-carboxamide]: the figures for the IC50 (in assay [1] (setting [2]); on WRN C727) were 15 µM and 40 µM, respectively.

For orientation: GI50 means the concentration that inhibits growth by half.

For the origin of these results see patent US20250188040A1, “PHARMACEUTICAL COMPOSITIONS COMPRISING WRN HELICASE INHIBITORS” (Vividion Therapeutics, Inc., priority 2022, published 2025).
